Reference: patent publication EP4763839A1 (Pamplona Therapeutics (Shenzhen) Co., Ltd., priority 2023, dated 2025)
Counter-ions that a name gives are not always drawn.

Key:
IRAK4 [1] = biological target: T1, IRAK4 (Homo sapiens, UniProt Q9NWZ3); test: Assay for inhibitory effect of compound on IRAK4 kinase activity (KinEASE-STK S1 HTRF kit); type: biochemical; conditions: kinase 8 nM, ATP 80 µM, 37°C 90 minutes; read-out: IRAK4 HTRF IC50
T1 sequence (Q9NWZ3 1-460): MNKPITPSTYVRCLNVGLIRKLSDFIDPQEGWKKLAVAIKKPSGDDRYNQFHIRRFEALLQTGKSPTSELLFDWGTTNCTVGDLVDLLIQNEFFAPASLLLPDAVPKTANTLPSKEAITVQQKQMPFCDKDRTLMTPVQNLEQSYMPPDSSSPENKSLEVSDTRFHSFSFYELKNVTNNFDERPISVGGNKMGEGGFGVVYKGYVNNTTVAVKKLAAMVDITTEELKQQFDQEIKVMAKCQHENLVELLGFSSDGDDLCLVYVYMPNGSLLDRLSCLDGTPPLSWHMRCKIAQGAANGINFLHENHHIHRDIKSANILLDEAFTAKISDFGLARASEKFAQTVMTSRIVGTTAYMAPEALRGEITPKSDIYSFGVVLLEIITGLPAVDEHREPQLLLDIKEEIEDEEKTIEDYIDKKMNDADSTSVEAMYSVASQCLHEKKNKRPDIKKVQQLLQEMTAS
Method: Example 1: Kinase activity assay
Assay for inhibitory effect of compound on IRAK4 kinase activity
The inhibitory effect of the compound on IRAK4 kinase activity was measured using the KinEASE-STK S1 serine/threonine kinase kit (Cisbio). The specific method was as follows: the compound was dissolved in dimethyl sulfoxide and then subjected to 3-fold serial dilution in dimethyl sulfoxide, yielding final test compound concentrations in the reaction system ranging from 5,000 nM to 0.0254 nM. The kinase at a final concentration of 8 nM was added, followed by incubation at rt for 15 minutes. Subsequently, biotinylated STK1 substrate at a final concentration of 400 nM and adenosine triphosphate (ATP) at a final concentration of 80 µM were sequentially added, and the mixture was incubated at 37°C for 90 minutes. Then, the reaction was terminated by adding an anti-phosphoserine/threonine antibody conjugated with a europium cryptate and streptavidin-conjugated XL665 to the reaction system. After incubation at rt for 1 hour, the fluorescence intensity at emission wavelengths of 620 nm and 665 nm for each well was measured using an EnVision microplate reader (PerkinElmer) in HTRF mode. The ratio value was calculated using the formula: Ratio = (665 nm/620 nm)×10^4 The inhibition rate of the compound at each concentration was calculated using the formula: Inhibition% = [1-(Signal sample-Signal min)/(Signal max-Signal min)]×100. Subsequently, the dose-response curve was fitted by nonlinear curve fitting of log concentration versus inhibition rate using Fit Modela (205) in XLfit to give the IC50 value of the compound for inhibition of protein activity.

IRAK4 [2] = biological target: T1, IRAK4; test: Degradation of IRAK4 in THP1 cells, Western blot; type: cell-based; set-up: Degradation of IRAK4 in THP1 by compound; host or cells: THP-1; conditions: THP-1 cells, 24 hours of incubation; for DC50: IRAK4 protein by Western blot, read-out: DC50; for Dmax: maximum degradation rate, read-out: Dmax
How it was run: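 Degradation rate derived from densitometry of IRAK4 bands versus DMSO-treated controls. Read-out: anti-IRAK4 immunoblot (10% gel, 40 μg total protein per lane, BCA-normalised) of lysates from THP1 cells incubated with compound for 24 h.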

| SMILES | IC50 (IRAK4 [1]) [nM] | DC50 (IRAK4 [2]) [nM] | Dmax (IRAK4 [2]) [%] |
| --- | --- | --- | --- |
| CC(C)(C)OC(=O)N1CCC(n2cc(NC(=O)c3cccc(C(F)(F)F)n3)c(C(N)=O)n2)CC1 [Compound A1] | 100 to 1000 |  |  |
| NC(=O)c1nn(-c2cnc(Br)cn2)cc1NC(=O)c1cccc(C(F)(F)F)n1 [Compound A2] | > 1000 |  |  |
| NC(=O)c1nn(C2CCNCC2)cc1NC(=O)c1cccc(C(F)(F)F)n1 [Compound A3] | 100 to 1000 |  |  |
| NC(=O)c1nn(-c2ccc(O)cc2)cc1NC(=O)c1cccc(C(F)(F)F)n1 [Compound A6] | < 100 |  |  |
| NC(=O)c1nn(-c2ccc(N)cc2)cc1NC(=O)c1cccc(C(F)(F)F)n1 [Compound A9] | 100 to 1000 |  |  |
| CNc1ccc(-n2cc(NC(=O)c3cccc(C(F)(F)F)n3)c(C(N)=O)n2)cc1 [Compound A10] | 100 to 1000 |  |  |
| CNC(=O)c1ccc(-n2cc(NC(=O)c3cccc(C(F)(F)F)n3)c(C(N)=O)n2)cc1 [Compound A14] | < 100 |  |  |
| CN(C)C(=O)c1ccc(-n2cc(NC(=O)c3cccc(C(F)(F)F)n3)c(C(N)=O)n2)cc1 [Compound A15] | < 100 |  |  |
| NC(=O)c1nn(-c2ccc(C(=O)O)c(F)c2)cc1NC(=O)c1cccc(C(F)(F)F)n1 [Compound A17] | 100 to 1000 |  |  |
| CC(C)(O)c1nn(-c2ccc(N3CCN(CC4CCN(c5ccc(NC6CCC(=O)NC6=O)cc5F)CC4)CC3)cc2)cc1NC(=O)c1cccc(C(F)(F)F)n1 (stereo not drawn) [Compound A434, N-(1-(4-(4-((1-(4-((2,6-Dioxopiperidin-3-yl)amino)-2-fluorophenyl)piperidin-4-yl)methyl)piperazin-1-yl)phenyl)-3-(2-hydroxypropan-2-yl)-1H-pyrazol-4-yl)-6-(trifluoromethyl)picolinamide] |  | < 100 | > 60 |
| CC(C)(O)c1nn(-c2ccc(N3CCN(CC4CCN(c5ccc(OC6CCC(=O)NC6=O)cn5)CC4)CC3)cc2)cc1NC(=O)c1cccc(C(F)(F)F)n1 (stereo not drawn) [Compound A437] |  | < 100 | > 60 |
| CC(C)(O)c1nn(-c2ccc(N3CCN(C4CCN(c5ccc(NC6CCC(=O)NC6=O)cc5F)CC4)CC3)cc2)cc1NC(=O)c1cccc(C(F)(F)F)n1 (stereo not drawn) [Compound A439, N-(1-(4-(4-(1-(-4-((2,6-Dioxopiperidin-3-yl)amino)-2-fluorophenyl)piperidin-4-yl)piperazin-1-yl)phenyl)-3-(2-hydroxypropan-2-yl)-1H-pyrazol-4-yl)-6-(trifluoromethyl)picolinamide] |  | < 100 | > 60 |
| CC(C)(O)c1nn(-c2ccc(N3CCN(C4CCN(c5ccc(C(=O)NC6CCC(=O)NC6=O)c(F)c5)CC4)CC3)cc2)cc1NC(=O)c1cccc(C(F)(F)F)n1 (stereo not drawn) [Compound A442, N-(1-(4-(4-(1-(4-((2,6-dioxopiperidin-3-yl)carbamoyl)-3-fluorophenyl)piperidin-4-yl)piperazin-1-yl)phenyl)-3-(2-hydroxypropan-2-yl)-1H-pyrazol-4-yl)-6-(trifluoromethyl)picolinamide] |  | < 100 | > 60 |
| CC(C)(O)c1nn(-c2ccc(N3CCN(C4CCN(c5ccc(C(=O)NC6CCC(=O)NC6=O)cc5F)CC4)CC3)cc2)cc1NC(=O)c1cccc(C(F)(F)F)n1 (stereo not drawn) [Compound A443, N-(1-(4-(4-(1-(4-((2,6-dioxopiperidin-3-yl)carbamoyl)-2-fluorophenyl)piperidin-4-yl)piperazin-1-yl)phenyl)-3-(2-hydroxypropan-2-yl)-1H-pyrazol-4-yl)-6-(trifluoromethyl)picolinamide] |  | < 100 | > 60 |
| NC(=O)c1nn(-c2ccc(N3CCN(C(=O)N4CCC(Cc5ccc(N6CCC(=O)NC6=O)cc5)CC4)CC3)cc2)cc1NC(=O)c1cccc(C(F)(F)F)n1 [Compound A448] |  | 100 to 1000 | 40 to 60 |
| NC(=O)c1cn(-c2ccc(N3CCN(C4CCN(c5ccc(C(=O)NC6CCC(=O)NC6=O)nc5)CC4)CC3)cc2)cc1NC(=O)c1cccc(C(F)(F)F)n1 (stereo not drawn) [Compound A452, N-(4-Carbamoyl-1-(4-(4-(1-(6-((2,6-dioxopiperidin-3-yl)carbamoyl)pyridin-3-yl)piperidin-4-yl)piperazin-1-yl)phenyl)-1H-pyrrol-3-yl)-6-(trifluoromethyl)picolinamide] |  | < 100 | > 60 |
| COc1ccc(C(=O)N2CCC(CCN3CCN(c4ccc(-n5cc(NC(=O)c6cccc(C(F)(F)F)n6)c(C(C)(C)O)n5)cc4)CC3)CC2)cc1N1CCC(=O)NC1=O [Compound A454, N-(1-(4-(4-(2-(1-(3-(2,4-Dioxotetrahydropyrimidin-1(2H)-yl)-4-methoxybenzoyl)piperidin-4-yl)ethyl)piperazin-1-yl)phenyl)-3-(2-hydroxypropan-2-yl)-1H-pyrazol-4-yl)-6-(trifluoromethyl)picolinamide] |  | < 100 | > 60 |

More lines, now with the values ahead:

| IC50 (IRAK4 [1]) [nM] | DC50 (IRAK4 [2]) [nM] | Dmax (IRAK4 [2]) [%] | SMILES |
| --- | --- | --- | --- |
| > 1000 |  |  | NC(=O)c1cn(-c2ccccc2)nc1NC(=O)c1cccc(C(F)(F)F)n1 [Compound A4] |
| < 100 |  |  | NC(=O)c1nn(-c2ccccc2)cc1NC(=O)c1cccc(C(F)(F)F)n1 [Compound A5] |
| 100 to 1000 |  |  | COc1ccc(-n2cc(NC(=O)c3cccc(C(F)(F)F)n3)c(C(N)=O)n2)cc1 [Compound A7] |
| < 100 |  |  | CC(=O)Nc1ccc(-n2cc(NC(=O)c3cccc(C(F)(F)F)n3)c(C(N)=O)n2)cc1 [Compound A12] |
| < 100 |  |  | NC(=O)c1nn(-c2ccc(C(=O)N3CCNCC3)cc2)cc1NC(=O)c1cccc(C(F)(F)F)n1 [Compound A16] |
| 100 to 1000 |  |  | NC(=O)c1nn(-c2ccc(CO)cc2)cc1NC(=O)c1cccc(C(F)(F)F)n1 [Compound A18] |
| < 100 |  |  | COCc1ccc(-n2cc(NC(=O)c3cccc(C(F)(F)F)n3)c(C(N)=O)n2)cc1 [Compound A19] |
|  | < 100 | > 60 | CC(C)(O)c1nn(-c2ccc(N3CCN(CC4CCN(c5ccc(NC6CCC(=O)NC6=O)cn5)CC4)CC3)cc2)cc1NC(=O)c1cccc(C(F)(F)F)n1 (stereo not drawn) [Compound A438, N-(1-(4-(4-((1-(5-((2,6-Dioxopiperidin-3-yl)amino)pyridin-2-yl)piperidin-4-yl)methyl)piperazin-1-yl)phenyl)-3-(2-hydroxypropan-2-yl)-1H-pyrazol-4-yl)-6-(trifluoromethyl)picolinamide formate] |
|  | < 100 | > 60 | CC(C)(O)c1nn(-c2ccc(N3CCN(C4CCN(c5ccc(OC6CCC(=O)NC6=O)cn5)CC4)CC3)cc2)cc1NC(=O)c1cccc(C(F)(F)F)n1 (stereo not drawn) [Compound A440, N-(1-(4-(4-(1-(5-((2,6-Dioxopiperidin-3-yl)oxy)pyridin-2-yl)piperidin-4-yl)piperazin-1-yl)phenyl)-3-(2-hydroxypropan-2-yl)-1H-pyrazol-4-yl)-6-(trifluoromethyl)picolinamide] |
|  | < 100 | > 60 | CN(c1ccc(N2CCC(CN3CCN(c4ccc(-n5cc(NC(=O)c6cccc(C(F)(F)F)n6)c(C(N)=O)n5)cc4)CC3)CC2)c(F)c1)C1CCC(=O)NC1=O (stereo not drawn) [Compound A447, N-(3-Carbamoyl-1-(4-(4-((1-(4-((2,6-Dioxopiperidin-3-yl)(methyl)amino)-2-fluorophenyl)piperidin-4-yl)methyl)piperazin-1-yl)phenyl)-1H-pyrazol-4-yl)-6-(trifluoromethyl)picolinamide formate] |
|  | < 100 | > 60 | NC(=O)c1nn(C23CC(N4CCN(C5CCN(c6ccc(NC7CCC(=O)NC7=O)cc6F)CC5)CC4)(C2)C3)cc1NC(=O)c1cccc(C(F)(F)F)n1 (stereo not drawn) [Compound A451, N-(3-Carbamoyl-1-(3-(4-(1-(4-((2,6-Dioxopiperidin-3-yl)amino)-2-fluorophenyl)piperidin-4-yl)piperazin-1-yl)bicyclo[1.1.1]pentan-1-yl)-1H-pyrazol-4-yl)-6-(trifluoromethyl)picolinamide] |
|  | < 100 | > 60 | CC(C)(O)c1nn(-c2ccc(N3CCN(CCC4CCN(C(=O)c5ccc(F)c(N6CCC(=O)NC6=O)c5)CC4)CC3)cc2)cc1NC(=O)c1cccc(C(F)(F)F)n1 [Compound A453, N-(1-(4-(4-(2-(1-(3-(2,4-Dioxotetrahydropyrimidin-1(2H)-yl)-4-fluorobenzoyl)piperidin-4-yl)ethyl)piperazin-1-yl)phenyl)-3-(2-hydroxypropan-2-yl)-1H-pyrazol-4-yl)-6-(trifluoromethyl)picolinamide] |
